Measured values reported in BigSolDB 2.1.

CCOC(=O)[C@@H]1CSCN1.Cl
solubility (mole fraction) (in 1,4-dioxane, 288.15 K): 0.000476 | solubility (mole fraction) (in 1,4-dioxane, 293.15 K): 0.000593 | solubility (mole fraction) (in 1,4-dioxane, 303.15 K): 0.000872 | solubility (mole fraction) (in 1,4-dioxane, 313.15 K): 0.00156 | solubility (mole fraction) (in 1,4-dioxane, 323.15 K): 0.00266 | solubility (mole fraction) (in 2-butanone, 283.15 K): 4.1e-05 | solubility (mole fraction) (in 2-butanone, 293.15 K): 0.000107 | solubility (mole fraction) (in 2-butanone, 303.15 K): 0.00018 | solubility (mole fraction) (in 2-butanone, 313.15 K): 0.000298 | solubility (mole fraction) (in 2-butanone, 323.15 K): 0.000434 | solubility (mole fraction) (in acetone, 283.15 K): 4e-05 | solubility (mole fraction) (in acetone, 293.15 K): 0.000116 | solubility (mole fraction) (in acetone, 303.15 K): 0.000348 | solubility (mole fraction) (in acetone, 313.15 K): 0.000859 | solubility (mole fraction) (in acetone, 323.15 K): 0.00187 | solubility (mole fraction) (in acetonitrile, 283.15 K): 0.000408 | solubility (mole fraction) (in acetonitrile, 293.15 K): 0.00125 | solubility (mole fraction) (in acetonitrile, 303.15 K): 0.00252 | solubility (mole fraction) (in acetonitrile, 313.15 K): 0.00451 | solubility (mole fraction) (in acetonitrile, 323.15 K): 0.00664 | solubility (mole fraction) (in dichloromethane, 283.15 K): 0.00638 | solubility (mole fraction) (in dichloromethane, 288.15 K): 0.01 | solubility (mole fraction) (in dichloromethane, 293.15 K): 0.0128 | solubility (mole fraction) (in dichloromethane, 298.15 K): 0.0157 | solubility (mole fraction) (in dichloromethane, 303.15 K): 0.0187 | solubility (mole fraction) (in ethanol, 283.15 K): 0.00937 | solubility (mole fraction) (in ethanol, 293.15 K): 0.0125 | solubility (mole fraction) (in ethanol, 303.15 K): 0.0193 | solubility (mole fraction) (in ethanol, 313.15 K): 0.0306 | solubility (mole fraction) (in ethanol, 323.15 K): 0.0473 | solubility (mole fraction) (in ethyl acetate, 283.15 K): 0.000103 | solubility (mole fraction) (in ethyl acetate, 293.15 K): 0.000161 | solubility (mole fraction) (in ethyl acetate, 303.15 K): 0.000215 | solubility (mole fraction) (in ethyl acetate, 313.15 K): 0.000273 | solubility (mole fraction) (in ethyl acetate, 323.15 K): 0.000345 | solubility (mole fraction) (in isobutanol, 283.15 K): 0.00153 | solubility (mole fraction) (in isobutanol, 293.15 K): 0.00257 | solubility (mole fraction) (in isobutanol, 303.15 K): 0.00495 | solubility (mole fraction) (in isobutanol, 313.15 K): 0.00811 | solubility (mole fraction) (in isobutanol, 323.15 K): 0.0117 | solubility (mole fraction) (in isopropanol, 283.15 K): 0.00271 | solubility (mole fraction) (in isopropanol, 293.15 K): 0.00323 | solubility (mole fraction) (in isopropanol, 303.15 K): 0.00492 | solubility (mole fraction) (in isopropanol, 313.15 K): 0.00807 | solubility (mole fraction) (in isopropanol, 323.15 K): 0.0131 | solubility (mole fraction) (in methanol, 283.15 K): 0.0465 | solubility (mole fraction) (in methanol, 293.15 K): 0.0619 | solubility (mole fraction) (in methanol, 303.15 K): 0.0835 | solubility (mole fraction) (in methanol, 313.15 K): 0.112 | solubility (mole fraction) (in methanol, 323.15 K): 0.142 | solubility (mole fraction) (in methyl acetate, 283.15 K): 3.8e-05 | solubility (mole fraction) (in methyl acetate, 293.15 K): 7e-05 | solubility (mole fraction) (in methyl acetate, 303.15 K): 0.000126 | solubility (mole fraction) (in methyl acetate, 313.15 K): 0.000192 | solubility (mole fraction) (in methyl acetate, 323.15 K): 0.000276 | solubility (mole fraction) (in n-butanol, 283.15 K): 0.00141 | solubility (mole fraction) (in n-butanol, 293.15 K): 0.00427 | solubility (mole fraction) (in n-butanol, 303.15 K): 0.00829 | solubility (mole fraction) (in n-butanol, 313.15 K): 0.0124 | solubility (mole fraction) (in n-butanol, 323.15 K): 0.017 | solubility (mole fraction) (in n-propanol, 283.15 K): 0.00489 | solubility (mole fraction) (in n-propanol, 293.15 K): 0.0078 | solubility (mole fraction) (in n-propanol, 303.15 K): 0.012 | solubility (mole fraction) (in n-propanol, 313.15 K): 0.0186 | solubility (mole fraction) (in n-propanol, 323.15 K): 0.0298 | solubility (mole fraction) (in sec-butanol, 283.15 K): 0.000766 | solubility (mole fraction) (in sec-butanol, 293.15 K): 0.00103 | solubility (mole fraction) (in sec-butanol, 303.15 K): 0.00182 | solubility (mole fraction) (in sec-butanol, 313.15 K): 0.00365 | solubility (mole fraction) (in sec-butanol, 323.15 K): 0.00936 | solubility (mole fraction) (in water, 283.15 K): 0.0825 | solubility (mole fraction) (in water, 293.15 K): 0.104 | solubility (mole fraction) (in water, 303.15 K): 0.124 | solubility (mole fraction) (in water, 313.15 K): 0.148 | solubility (mole fraction) (in water, 323.15 K): 0.188
